Reference: patent US20210380586A1, “2-INDOLYL IMIDAZO[4,5-D]PHENANTHROLINE POLYMORPHS AND COMPOSITIONS REGARDING THE SAME” (Aptose Biosciences Inc., priority 2020, published 2021)

Tests used:
[1] = Single dose intravenous infusion in rats, toxicokinetic parameters in serum; assay type: in vivo, Sprague-Dawley rats
Method: Compound I-hydrate Form 2 was formulated in 23% Solutol HS-15 and 70% PG and diluted with Lactated Ringer Solution to a concentration of 0.061 mg/mL. […] Dose volume was 10 mL/Kg and the infusion rate was 120 mL/kg/hr.
Following dosing, a series of 12 blood samples (approximately 0.2 mL each) were collected from the rats in the first 72 hours. Following collection, blood samples were allowed to stand at room temperature for approximately 30 to 60 minutes to clot and then centrifused (1200×g for 10 minutes at approximately 4° C.) and the resulting serum was recovered and stored frozen until analysis. Mean toxicokinetic parameters were calculated (Table 7).

[2] = Variable relative humidity (VRH)-XRPD analysis; assay type: physicochemical
Method: To investigate the behavior of Crystalline Form 2 at various humidities and evaluate conditions that favor generation of Form 2 (tetrahydrate) versus Form 3 (dihydrate), Form 2 was characterized by VRH-XRPD. The analysis was conducted by beginning at ambient RH (˜50%) and lowering to 0% RH for 4 hours. Actual RH during this time ranged from 0.7-0.3%.

[3] = Polymorph transition study, slurry in water-methanol, XRPD; assay type: physicochemical; conditions: in the presence of water
Method: The Slurry was maintained at 20° C. or at 50° C. for one week then the resulting crystals were analyzed by XRPD to determine its polymorphic form.

[4] = IV formulation end user compatibility study, microscopic particulate examination; assay type: physicochemical
Method: For the high concentration, […] of Compound I-tetrahydrate (4.0 mg/mL) was injected into a BBraun partial additive bag (PAB) for IV administration, attached to a Y-infusion set line. The other end of the Y infusion set line was connected to Lactated Ringer's Solution. Infusion is performed via the Y infusion set, such that the drug product is mixed with Lactated Ringer's Solution directly prior to administration. A total volume of 100 mL drug product at a rate of 50 mL/hr and 200 mL Lactated Ringer's Solution at a rate of 100 mL/hr were administered in a 2:1 ratio over a two hour period, to deliver 300 mL of eluent at a rate of 150 mL/hr.
The evaluation of particulate matter from collected IV samples was therefore performed by microscopic visual examination utilizing approximately 25 μL of IV co-infusion eluate, collected directly from the terminal end of the IV line, deposited on a microscope slide. […] The specific microscope settings used are shown below. A Positive Control sample containing a USP Particle Count Reference Standard consisting of spherical particles of known sizes between 10 μm and 15 μm (USP reference standard, Cat. No.: 1500502, lot #L0L142) was visualized under the microscope using a 10×10 lens.

[5] = USP <788> Method 1 HIAC particle count after mixing with Lactated Ringers; assay type: physicochemical; conditions: 4 mg/mL mixed with Lactated Ringers 2:1, held in glass or Nalgene container
Method: In USP <788> monograph, two methods were provided to determine particles or particulate matter in an injectable drug, i.e. using an analytical instrument to count particle or Method I (e.g. electronic light obscuration or HIAC method) or counting the particles using an optical microscope (Method 2). Prior to conducting the End-User Compatibility Study, a study was performed to determine the feasibility of sample collection and assessment by USP <788> Method I (HIAC analysis). For this study, Compound I-tetrahydrate (4 mg/mL) was mixed with Lactated Ringers IV Solution in a 2:1 ratio of Lactated Ringers solution to Compound I-tetrahydrate and held in a glass or Nalgene plastic container. Samples were held for 1, 5, 10, 15, 20, 25 and 30 minutes and analyzed by USP <788> Method 1 using a HIAC electronic light obscuration particle counter. […] This short time duration precluded the use of USP <788> Method 1 (HIAC) due to the large sample volumes (˜25 mL) and length of time required to collect this volume of sample, drop wise, from the infusion set.

[6] = Effect of drying on polymorphic form, XRPD; assay type: physicochemical
Method: Crystalline Compound I-tetrahydrate Form 2 was dried under varying temperature, pressure, and time as indicted in Table 2. After the drying, the resulting crystals were analyzed by XRPD to determine its polymorphic form.

[7] = Exposure of solids to fixed relative humidity for 11 days, XRPD; assay type: physicochemical; conditions: for form after exposure to humidity: 11 days
Excerpt: To determine relative humidity boundaries for conversion between Form 2 and Form 3, solids of Form 2 were exposed to P2O5 conditions (˜0% RH), 11%, and 23% RH. The solids were held at the specified humidities for 11 days to see if the longer duration would result in the presence of Form 3.

[8] = 4.0 mg/mL, Y-infusion with Lactated Ringer's Solution 2:1, 120 min simulated infusion run

Q: Which AUC(0-inf) ([1]; Sprague-Dawley, rat, male rats serum, 0.5 mg/kg, single IV infusion over 5 min, mean) does the source give for `Cc1[nH]c2ccc(F)cc2c1-c1nc2c3cccnc3c3ncccc3c2[nH]1` [Compound I-hydrate Form 2] here?
A: Its AUC(0-inf) is 130 ng·h/mL.

Q: And the AUC(0-t) ([1]; Sprague-Dawley, rat, male rats serum, 0.5 mg/kg, single IV infusion over 5 min, mean, read-out: AUC0-Tlast)?
A: The AUC(0-t) was 100 ng·h/mL.

Q: What about the clearance ([1]; Sprague-Dawley, rat, male rats serum, 0.5 mg/kg, single IV infusion over 5 min, mean, read-out: Cl (total body clearance per kg body weight) (converted)) of the same compound?
A: The clearance was 64 mL/min/kg.

Q: And the Cmax ([1]; Sprague-Dawley, rat, male rats serum, 0.5 mg/kg, single IV infusion over 5 min, mean, read-out: Cmax (maximum plasma concentration))?
A: The Cmax was 1750 ng/mL.

Q: What about the half-life ([1]; Sprague-Dawley, rat, male rats serum, 0.5 mg/kg, single IV infusion over 5 min, mean, read-out: T1/2 (Terminal elimination half-life) (converted)) of the same compound?
A: The half-life was 1.45 h.

Q: What about the Tmax ([1]; Sprague-Dawley, rat, male rats serum, 0.5 mg/kg, single IV infusion over 5 min, mean, read-out: Tmax (time to maximum plasma concentration)) of the same compound?
A: The Tmax was 0 h.

Q: What about the Vd ([1]; Sprague-Dawley, rat, male rats serum, 0.5 mg/kg, single IV infusion over 5 min, mean, read-out: Vz (volume of distribution per kg body weight)) of the same compound?
A: The Vd was 8.04 L/kg.

Q: And the “AUC % Extrap” value ([1]; male rats serum, 0.5 mg/kg, single IV infusion over 5 min, mean)?
A: The value was 23.1%.

Q: What about the “AUCs, fold higher than with Compound I-HCl salt” value ([1]; rats, 0.5 mg/kg IV) of the same compound?
A: The value was “approximately 3 fold”.

Q: And the “Cmax, fold higher than with Compound I-HCl salt” value ([1]; rats, 0.5 mg/kg IV)?
A: The value was “approximately 3 fold”.

Q: And the “volume of distribution, fold higher than Compound I-HCl salt” value ([1]; rats, 0.5 mg/kg IV)?
A: The value was 1.6 fold.

Q: What about the “VRH-XRPD Results” value ([2]; Held at ~0.3-0.7% RH, 4 hours) of the same compound?
A: The value was “Form 2 + Form 3; amount of Form 3”.

Q: What about the “VRH-XRPD Results” value ([2]; Initial scan at ambient RH (46.3%)) of the same compound?
A: Its value is “Consistent with Form 2”.

Q: What about the “VRH-XRPD Results” value ([2]; finally held at ambient RH (~40% to ~37%)) of the same compound?
A: Its value is “Form 2 + trace amount of Form 3”.

Q: And the “VRH-XRPD Results” value ([2]; then held at ~50% RH, 1 hour (cycling back))?
A: The value was “Form 2, possibly contains trace”.

Q: What about the “VRH-XRPD Results” value ([2]; then held at ~50% RH, 1 hour (increasing RH)) of the same compound?
A: The value was “Form 2 + Form 3”.

Q: What about the “VRH-XRPD Results” value ([2]; then held at ~80% RH, 1 hour (cycling back)) of the same compound?
A: The value was “Form 2, possibly contains trace”.

Q: What about the “VRH-XRPD Results” value ([2]; then held at ~82-79% RH, 1 hour) of the same compound?
A: Its value is “Form 2 + trace amount of Form 3”.

Q: What about the “VRH-XRPD Results” value ([2]; then held at ~85-87% RH, 2 hours) of the same compound?
A: The value was “Form 2, possibly contains trace”.

Q: What about the “stability relative to Crystalline Form 1” value [3] of the same compound?
A: The value was “more stable”.

Q: What about the “filter clogging or stoppage of the infusion pump” value [4, 8] of the same compound?
A: Its value is “No filter clogging”.

Q: What about the “particles by microscope examination in eluent samples” value [4, 8] of the same compound?
A: The value was “no particles were detected”.

Q: And the “time material may be infused without filter clogging” value ([4]; "Y-Line" infusion set)?
A: Its value is “up to 2 hours”.

Q: And the “time at which particulate formed at levels exceeding USP acceptance criteria” value [5]?
A: Its value is “approximately 10 minutes”.

Q: And the “stability under various drying conditions” value ([6]; 15-35 ° C., 600-0 mbar, up to 3 days)?
A: The value was “stable”.

Q: What about the “Polymorphic form by XRPD after drying” value ([6]; 15 ° C., 0 mbar, drying time 1 h) of the same compound?
A: The value was “Form 2”.

Q: And the “Polymorphic form by XRPD after drying” value ([6]; 15 ° C., 0 mbar, drying time 4 h)?
A: Its value is “Form 1”.

Q: What about the “Polymorphic form by XRPD after drying” value ([6]; 15 ° C., 0 mbar, drying time 24 h) of the same compound?
A: Its value is “Form 1”.

Q: What about the “Polymorphic form by XRPD after drying” value ([6]; 15 ° C., 0 mbar, drying time 3 days) of the same compound?
A: The value was “Form 1”.

Q: What about the “Polymorphic form by XRPD after drying” value ([6]; 15 ° C., 400 mbar, drying time 1 h) of the same compound?
A: Its value is “Form 2”.

Q: And the “Polymorphic form by XRPD after drying” value ([6]; 15 ° C., 400 mbar, drying time 4 h)?
A: The value was “Form 2”.

Q: And the “Polymorphic form by XRPD after drying” value ([6]; 15 ° C., 400 mbar, drying time 24 h)?
A: Its value is “Form 2”.

Q: What about the “Polymorphic form by XRPD after drying” value ([6]; 15 ° C., 400 mbar, drying time 3 days) of the same compound?
A: The value was “Form 2”.

Q: What about the “Polymorphic form by XRPD after drying” value ([6]; 15 ° C., 600 mbar, drying time 1 h) of the same compound?
A: The value was “Form 2”.

Q: What about the “Polymorphic form by XRPD after drying” value ([6]; 15 ° C., 600 mbar, drying time 4 h) of the same compound?
A: Its value is “Form 2”.

Q: And the “Polymorphic form by XRPD after drying” value ([6]; 15 ° C., 600 mbar, drying time 24 h)?
A: The value was “Form 2”.

Q: What about the “Polymorphic form by XRPD after drying” value ([6]; 15 ° C., 600 mbar, drying time 3 days) of the same compound?
A: The value was “Form 2”.

Q: And the “Polymorphic form by XRPD after drying” value ([6]; 25 ° C., 0 mbar, drying time 1 h)?
A: Its value is “Form 2”.

Q: And the “Polymorphic form by XRPD after drying” value ([6]; 25 ° C., 0 mbar, drying time 4 h)?
A: The value was “Form 1”.

Q: And the “Polymorphic form by XRPD after drying” value ([6]; 25 ° C., 0 mbar, drying time 24 h)?
A: The value was “Form 1”.

Q: What about the “Polymorphic form by XRPD after drying” value ([6]; 25 ° C., 400 mbar, drying time 1 h) of the same compound?
A: The value was “Form 2”.

Q: What about the “Polymorphic form by XRPD after drying” value ([6]; 25 ° C., 400 mbar, drying time 4 h) of the same compound?
A: The value was “Form 2”.

Q: And the “Polymorphic form by XRPD after drying” value ([6]; 25 ° C., 400 mbar, drying time 24 h)?
A: The value was “Form 2”.

Q: And the “Polymorphic form by XRPD after drying” value ([6]; 25 ° C., 400 mbar, drying time 3 days)?
A: The value was “Form 2”.

Q: What about the “Polymorphic form by XRPD after drying” value ([6]; 25 ° C., 600 mbar, drying time 1 h) of the same compound?
A: The value was “Form 2”.

Q: And the “Polymorphic form by XRPD after drying” value ([6]; 25 ° C., 600 mbar, drying time 4 h)?
A: The value was “Form 2”.

Q: And the “Polymorphic form by XRPD after drying” value ([6]; 25 ° C., 600 mbar, drying time 24 h)?
A: The value was “Form 2”.

Q: And the “Polymorphic form by XRPD after drying” value ([6]; 25 ° C., 600 mbar, drying time 3 days)?
A: Its value is “Form 2”.

Q: And the “Polymorphic form by XRPD after drying” value ([6]; 35 ° C., 0 mbar, drying time 1 h)?
A: The value was “Form 1 and Form 2”.

Q: What about the “Polymorphic form by XRPD after drying” value ([6]; 35 ° C., 0 mbar, drying time 4 h) of the same compound?
A: Its value is “Form 1”.

Q: And the “Polymorphic form by XRPD after drying” value ([6]; 35 ° C., 0 mbar, drying time 24 h)?
A: The value was “Form 1”.

Q: And the “Polymorphic form by XRPD after drying” value ([6]; 35 ° C., 400 mbar, drying time 1 h)?
A: Its value is “Form 2”.

Q: And the “Polymorphic form by XRPD after drying” value ([6]; 35 ° C., 400 mbar, drying time 4 h)?
A: Its value is “Form 2”.

Q: What about the “Polymorphic form by XRPD after drying” value ([6]; 35 ° C., 400 mbar, drying time 24 h) of the same compound?
A: Its value is “Form 2”.

Q: What about the “Polymorphic form by XRPD after drying” value ([6]; 35 ° C., 600 mbar, drying time 1 h) of the same compound?
A: The value was “Form 2”.

Q: What about the “Polymorphic form by XRPD after drying” value ([6]; 35 ° C., 600 mbar, drying time 4 h) of the same compound?
A: The value was “Form 2”.

Q: What about the “Polymorphic form by XRPD after drying” value ([6]; 35 ° C., 600 mbar, drying time 24 h) of the same compound?
A: Its value is “Form 2”.

Q: And the “form change under full vacuum” value ([6]; full vacuum (0 mbar) for four hours, all temperature tested)?
A: Its value is “complete conversion to Form 1”.

Q: And the “form after exposure to humidity” value ([7]; 11% RH)?
A: The value was “no form change”.

Q: And the “form after exposure to humidity” value ([7]; 23% RH)?
A: The value was “no form change”.

Q: And the “form after exposure to humidity” value ([7]; P2O5 conditions (~0% RH))?
A: The value was “converts to Form 3”.

Q: And the “relative humidity at and above which physically stable” value ([7]; exposed for over a week)?
A: The value was no less than 11 % RH.
